Test results published in patent US20260027243A1, “AMPHIPHILIC COMPOUNDS FOR ATTENUATING NEUROTOXICITY OF AMYLOID-beta OLIGOMERS AND DIAGNOSTIC METHODS” (THE BOARD OF TRUSTEES OF THE UNIVERSITY OF ILLINOIS, priority 2022, published 2026).
Read-outs that look alike come from different tables or passages of the source.

Columns and labels:
[1] = Log D by octanol-PBS partition; format: physicochemical; conditions: DCM compounds
Procedure: Log D measurements. The Log D value was measured following a published procedure using slight modifications. In general, compounds in 0.5 mL octanol was subjected to partition with 0.5 mL octanol-saturated PBS. The whole mixture was stirred vigorously for 5 min, and centrifuged at 2,000 rpm for 5 min. The top octanol layer was separated for later fluorescence measurement. The remaining PBS layer was partitioned with 0.5 mL PBS-saturated octanol, and the second top octanol layer was then separated after vigorous stirring and centrifuging at 2,000 rpm for another 5 min. The two octanol layers' fluorescence spectra were recorded. The log D value was calculated by the fluorescence intensity ratio at the compounds' emission wavelength for the above two octanol extractions.

[2] = molecular target: T1, native Aβ species in 5×FAD mice brain sections (Homo sapiens, UniProt P05067); assay: Fluorescence staining of 5×FAD mice brain sections, colocalization; parameters: species or system mouse; conditions: 5×FAD brain sections, compared with ThS
T1 construct: from tissue; host or cells: brain sections of 5×FAD transgenic mice
T1 sequence (P05067 672-713 limits assumed): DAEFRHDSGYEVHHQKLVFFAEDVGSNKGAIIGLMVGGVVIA
Procedure: Histological Staining of 5×FAD Mice Brain Sections. 5×FAD transgenic mice brain sections were blocked with bovine serum albumin (2% BSA in PBS, pH 7.4, 10 min). Then the mice brain sections were transferred to a PBS solution of the compound and incubated for 1 h. […] Then, the brain sections were treated with BSA again (5 min) followed by washing with PBS (3×2 min), DI water (3×2 min). Finally, the mice brain sections were mounted with non-fluorescent mounting media, and the images were obtained by using EVOS FL Auto 2. ImageJ Fiji program was used for colocalization analysis and determination of the Pearson's correlation coefficient. The primary antibodies were labeled with dye CF594 via Mix-n-Stain™ CF™ 594 Antibody Labeling Kit (Sigma Aldrich).

Aβ42 fibrils = molecular target: T2, Aβ42 fibrils (Homo sapiens, UniProt P05067); assay: Fluorescence saturation binding assay with Aβ42 fibrils; conditions: read-out: Kd, Fibrils
T2 construct: commercial Aβ42 monomer powder (from GL biochem); purchased GL biochem
T2 sequence (P05067 672-713 limits assumed): as above
Procedure: Preparation of the Aβ42 Fibrils and Aβ42 Oligomers. Aβ42 fibrils: 1 mg of commercial Aβ42 monomer powder (from GL biochem) was dissolved in 1 mL 1,1,1,3,3,3-hexafluoro-2-propanol (HFIP) at room temperature and incubated for 1 h. The resulting solution was divided equally into two Eppendorf tubes. The solution in each Eppendorf tube containing 0.5 mg Aβ42 monomer was then evaporated overnight and dried by vacuum centrifuge to generate monomeric films. […] Aβ42 fibrils solution was prepared by dissolving the 0.5 mg monomeric films in 1.1 mL PBS buffer (with final DMSO concentration less than 1%) and stirring at 37° C. for 3 days.
(§1) In Vitro Saturation Binding Studies with Aβ42 Fibrils and Aβ42 Oligomers. To a solution of increasing concentrations of compounds, a fixed concentration of the generated aggregated Aβ42 fibrils or Aβ42 oligomers solutions (5 to 15 NM) was added to yield a total volume of 100 μL. Nonspecific binding was determined […]. The mixture was incubated for 15 min at room temperature. All fluorescence data were obtained on a SpectraMax M2e plate reader (Molecular Devices). The fluorescent intensity was measured at the corresponding emission wavelength of each compound, and the Kd binding curves were generated by GraphPad Prism 8.0 with one site-specific binding model. Equation: Y=Bmax*X/(Kd+X).

Aβ42 oligomers = molecular target: T3, Aβ42 oligomers (Homo sapiens, UniProt P05067); assay: Fluorescence saturation binding assay with Aβ42 oligomers; conditions: for Kd: read-out: Kd, Oligomers
T3 construct: commercial Aβ42 monomer powder (from GL biochem); purchased GL biochem
T3 sequence (P05067 672-713 limits assumed): as above
Procedure: Aβ42 oligomers: The 0.5 mg monomeric films were dissolved in 1.1 mL PBS buffer (with final DMSO concentration less than 1%) and incubated at 4° C. overnight. The resulting solution was then centrifuged at 3000 rpm for 15 mins to remove the insoluble aggregates. The clear supernatant was then used for the following experiments. Aβ42 oligomers concentration was checked by measuring the absorbance of the supernatant at 280 nm.
as §1

[3] = test system: interactions between Cu-Aβ species and SH-SY5Y cell membranes; assay: Confocal imaging of Cu-Aβ species binding to SH-SY5Y cell membranes; format: cell-based, human; conditions: 5 μM Aβ monomers + Cu^2+ + compound, 48 h
Procedure: For monomers +Cu^2+ imaging: SH-5Y5Y were seeded as mentioned above, and cells were treated with DMSO as control group, 5 μM monomers, 5 μM (monomers +CuCl2) and 5 μM (monomers +CuCl2+compounds) respectively. After 48 h incubation, cells were treated and imaged the same way as mentioned above.

[4] = test system: interactions between Aβ oligomers and SH-SY5Y cell membranes; assay: Confocal imaging of Aβ oligomers binding to SH-SY5Y cell membranes; format: cell-based, human; conditions: 5 μM Aβ oligomers, 5 μM compound, 24 h
Procedure: (§2) Cell Imaging Procedures. For oligomers and fibrils imaging: Human neuroblastoma SH-SY5Y cells were grown with DMEM/10% FBS at 37° C. in a humidified atmosphere with 5% CO2, and an 8-well μ-slides (ibidi) chambered coverslip was seeded the SH-SY5Y cells. At about 80% confluency (24 h after seeding), the cells were treated with DMSO as control group, 5 μM oligomers/fibrils and 5 μM (oligomers/fibrils+ compounds), respectively. After 24 h incubation, the media was removed from each well. The cells were then fixed with 200 μL 3.7% formaldehyde for 15 min and blocked with 200 μL 3% BSA for 10 min. 3% BSA was then removed from the cells and replaced with 100 μL CF594-HJ 3.4 (1 μg/mL in 3% BSA). The cells were incubated with CF594-HJ 3.4 for 2 h at room temperature and were washed with PBS (5×100 μL). Before imaging, the cells in each well were stained with 100 μL NucBlue reagent (Thermo Fisher Scientific) for 15 min and mounted with non-fluorescent mounting media. 5-10 images of each well were taken, and the images were processed and analyzed by Fiji and Zeiss Zen lite software. Three individual replicates were conducted and subjected to the statistical analysis.

[5] = test system: interactions between Aβ fibrils and SH-SY5Y cell membranes; assay: Confocal imaging of Aβ fibrils binding to SH-SY5Y cell membranes; format: cell-based, human; conditions: 5 μM fibrils, 5 μM compound, 24 h
Procedure: as §2

[6] = test system: Cu^2+-Aβ42-induced toxicity in Neuro2A cells; assay: Cu2+-Aβ42-induced toxicity, Alamar blue cell viability; format: cell-based, mouse; conditions: [Aβ42]=40 μM, [Cu^2+]=40 μM, compound 10 μM (ZY-12-OMe 5 μM)
Procedure: FIG. 6. Cell viability results upon incubation of Neuro2A cells with monomeric Aβ42 in the presence or absence of metal ions and amphiphilic compounds. Concentrations: [Aβ42]=40 μM, [Cu^2+]=40 μM, [ZY-12-MT]=[ZY-15-OMe]=[ZY-15-MT]=[ZY-17-MT]=[ZY-5-OMe]=[ZY-5-MT]=[ZY-5-DT]=10 μM, [ZY-12-OMe]=5 μM. The error bars represent the standard deviation from five independent experiments, and the statistical analysis was evaluated according to one-way ANOVA (*p<0.05).
For the Cu^2+-Ap-induced toxicity studies, cells treated were monomeric Aβ42, Cu^2+, monomeric Aβ42+Cu^2+, and monomeric Aβ42+Cu^2++ compounds, respectively. After 40 h incubation, Alamar Blue solution (10 μL) was added, and the cells were incubated for another 90 min at 37° C. The fluorescence intensity of each well was measured at 590 nm (excitation wavelength=560 nm).

Compound	logD [1]	region of Aβ aggregates bound [2]	Kd (Aβ42 fibrils; Table 3, DCM compounds)	binding affinity towards Aβ42 oligomers over fibrils (Aβ42 oligomers; DCM compounds)	Kd (Aβ42 oligomers; Table 3, DCM compounds)	Cu-Aβ species interactions with cell membranes [3]	Aβ oligomers bound to cell membranes [4]	Aβ fibrils binding to cell membranes [5]	effect on cell viability under Cu^2+-Aβ42 toxicity [6]	Kd (Aβ42 fibrils; Table 1, amphiphilic compounds)	Kd (Aβ42 oligomers; Table 1, amphiphilic compounds)	binding affinity to oligomers compared with fibrils (Kd comparison) (Aβ42 oligomers; amphiphilic ZY compounds)
CN1CCN(C)CCN(Cc2cc(/C=C/C=C/C3=CC(=C(C#N)C#N)c4ccccc4O3)ccc2O)CC1 [DCM-OH-2-MT, 2-(2-((1E,3E)-4-(3-((4,7-dimethyl-1,4,7-triazonan-1-yl)methyl)-4-hydroxyphenyl)buta-1,3-dien-1-yl)-4H-chromen-4-ylidene)malononitrile]	1.13 ± 0.16	bind to the peripheral region of the Aβ aggregates	0.78 ± 0.11 µM	three times higher binding affinity towards Aβ42 oligomers over fibrils	0.23 ± 0.03 µM							
CN1CCN(C)CCN(Cc2cc(/C=C/c3ccc(-c4ccc(C=O)cc4)s3)ccc2O)CC1 [ZY-15-MT, (E)-4-(5-(3-((4,7-dimethyl-1,4,7-triazonan-1-yl)methyl)-4-hydroxystyryl)thiophen-2-yl)benzaldehyde]						significantly decreased interactions with cell membranes	fewer numbers of Aβ oligomers bound to the cell membranes	not able to significantly decrease the numbers of the Aβ fibrils binding to cell membranes	significantly increase cell viability	0.53 ± 0.03 µM	2.03 ± 0.11 µM	
COc1cc(/C=C/c2ccc(-c3ccc(C=O)cc3)s2)cc(CN2CCN(C)CCN(C)CC2)c1O [ZY-15-OMe, (E)-4-(5-(3-((4,7-dimethyl-1,4,7-triazonan-1-yl)methyl)-4-hydroxy-5-methoxystyryl)thiophen-2-yl)benzaldehyde]						significantly decreased interactions with cell membranes	fewer numbers of Aβ oligomers bound to the cell membranes	not able to significantly decrease the numbers of the Aβ fibrils binding to cell membranes	significantly increase cell viability	1.24 ± 0.18 µM	0.47 ± 0.13 µM	higher binding affinity to oligomers over fibrils
